Data reported in US20230041563A1, “N-(1,3,4-OXADIAZOL-2-YL)ARYLCARBOXAMIDES OR SALTS THEREOF, PREPARATION METHODS, HERBICIDAL COMPOSITIONS AND USES THEREOF” (priority 2018, published 2023).

Tests used:
Digitaria sanguinalis = assay: Weeding effect in post-emergence stage (greenhouse pot spray); assay type: in vivo
Procedure, shortened: (§1)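 Fresh-weight control rate was assessed 3 weeks after post-emergence spray-tower application at doses of 500–15 g a.i./ha, triplicate. Weeds were treated at the 2–3 leaf stage, 2 weeks post-sowing, using acetone solutions with Tween 80 plus 1.5 L/ha methyl oleate emulsifiable concentrate.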

Echinochloa crusgalli = assay: as above; assay type: in vivo
Procedure, shortened: as §1

Setaria viridis = assay: as above; assay type: in vivo
Procedure, shortened: as §1

Echinochloa crusgali = assay: Transplanted rice safety evaluation and weed control effect evaluation in rice field; assay type: in vivo
Text: (§2) Transplanted rice safety evaluation and weed control effect evaluation in rice field:
(§3) Rice field soil was loaded into a 1/1,000,000 ha pot. The seeds of echinochloa crusgali, scirpus juncoides, Bidens tripartita, Sagittaria trifolia, Monochoria vaginalis and Leptochloa chinensis were sowed and gently covered with soil, then left to stand still in greenhouse in the state of 0.5-1 cm of water storage. The tuber of Sagittaria trifolia was planted in the next day or 2 days later. It was kept at 3-4 cm of water storage thereafter. The weeds were treated by dripping the WP or SC water diluents prepared according to the common preparation method of the compounds of the present invention with pipette homogeneously to achieve specified effective amount when echinochloa crusgali, scirpus juncoides, Bidens tripartita, Monochoria vaginalis and Leptochloa chinensis reached 0.5 leaf stage and Sagittaria trifolia reached the time point of primary leaf stage.
(§4) The fertility condition of echinochloa crusgali, scirpus juncoides, Bidens tripartita, Leptochloa chinensis, Sagittaria trifolia and Monochoria vaginalis 14 days after the treatment of the compound of the invention and the fertility condition of rice 21 days after the treatment of the compound of the invention respectively with the naked eye. Evaluate the weed control effect with 0-5 activity standard level. Many compounds show excellent activity and selectivity.

Leptochloa chinensis = assay: as above; assay type: in vivo
Text: as §2, §3, §4

Monochoria vaginalis = assay: as above; assay type: in vivo
Text: as §2, §3, §4

Sagittaria trifolia = assay: as above; assay type: in vivo
Text: as §2, §3, §4

Rice = assay: as above; assay type: in vivo, rice (japonica rice/Indica rice)
Description: as §2
In addition, the rice field soil that loaded into the 1/1,000,000 ha pot was leveled to keep water storage at 3-4 cm depth. The 3 leaf stage rice (japonica rice/Indica rice) was transplanted at 3 cm of transplanting depth the next day. The compound of the present invention was treated by the same way after 5 days of transplantation.
as §4

Abutilon theophrasti = assay: Weeding effect in post-emergence stage (greenhouse pot spray); assay type: in vivo
Procedure, shortened: as §1

Amaranthus retroflexus = assay: as above; assay type: in vivo
Procedure, shortened: as §1

Stellaria media = assay: as above; assay type: in vivo
Procedure, shortened: as §1

[1] = test system: Indica rice (Huanghuazhan); assay: Safety test of control experiments on rice; assay type: in vivo; details: Dose 250 g a.i./ha
Text: (§5) The activity level criteria for plant damage (i.e., growth control rate) are as follows: Comparative Experiments: [table]

[2] = test system: Japonica rice (Huaidao No. 5); assay: Safety test of control experiments on rice; assay type: in vivo; details: Dose 250 g a.i./ha
Text: as §5

[3] = test system: rice and Echinochloa crusgali; assay: Herbicide selection index between rice and Echinochloa crusgali; assay type: in vivo; details: average dose causing 10% phytotoxicity to rice divided by average dose causing 90% control efficiency to Echinochloa crusgali
Scirpus juncoides = assay: Transplanted rice safety evaluation and weed control effect evaluation in rice field; assay type: in vivo; details: Table 7, dose 125 g a.i./ha, 14 days after treatment
Text: as §2, §3, §4

weeds = assay: Actual control effects and combined effects of mixtures of active ingredients (i) and (ii), stem-leaf treatment, Gowing method; assay type: in vivo; details: Cyperus difformis, 20 days
[4] = Table 7, dose 125 g a.i./ha, 14 days after treatment

CCCC[S@+]([O-])c1c(C(F)(F)F)ccc(C(=O)Nc2nnc(C)o2)c1F [1-14 (R-configuration)]
Digitaria sanguinahs (activity level) (Digitaria sanguinalis; Table 3, dose 7.5 g a.i./ha): 4 (Level 4: growth control rate is greater than or equal to 60% and less than 85%)
Digitaria sanguinahs (activity level) (Digitaria sanguinalis; Table 3, dose 15 g a.i./ha): 5 (Level 5: growth control rate is above 85%)
Digitaria sanguinahs (activity level) (Digitaria sanguinalis; Table 3, dose 30 g a.i./ha): 5 (Level 5: growth control rate is above 85%)
Digitaria sanguinahs (activity level) (Digitaria sanguinalis; Table 3, dose 60 g a.i./ha): 5 (Level 5: growth control rate is above 85%)
Echinochloa crusgali (activity level) (Echinochloa crusgalli; Table 3, dose 7.5 g a.i./ha): 5 (Level 5: growth control rate is above 85%)
Echinochloa crusgali (activity level) (Echinochloa crusgalli; Table 3, dose 15 g a.i./ha): 5 (Level 5: growth control rate is above 85%)
Echinochloa crusgali (activity level) (Echinochloa crusgalli; Table 3, dose 30 g a.i./ha): 5 (Level 5: growth control rate is above 85%)
Echinochloa crusgali (activity level) (Echinochloa crusgalli; Table 3, dose 60 g a.i./ha): 5 (Level 5: growth control rate is above 85%)
Setaria viridis (activity level) (Setaria viridis; Table 3, dose 7.5 g a.i./ha): 4 (Level 4: growth control rate is greater than or equal to 60% and less than 85%)
Setaria viridis (activity level) (Setaria viridis; Table 3, dose 15 g a.i./ha): 4 (Level 4: growth control rate is greater than or equal to 60% and less than 85%)
Setaria viridis (activity level) (Setaria viridis; Table 3, dose 30 g a.i./ha): 5 (Level 5: growth control rate is above 85%)
Setaria viridis (activity level) (Setaria viridis; Table 3, dose 60 g a.i./ha): 5 (Level 5: growth control rate is above 85%)
Echinochloa crusgali (activity level) (Echinochloa crusgali; Table 8, dose 60 g a.i./ha): 5 (Level 5: growth control rate is above 85%)
Leptochloa chinensis (activity level) (Leptochloa chinensis; Table 8, dose 60 g a.i./ha): 5 (Level 5: growth control rate is above 85%)
Monochoria vaginalis (activity level) (Monochoria vaginalis; Table 8, dose 60 g a.i./ha): 5 (Level 5: growth control rate is above 85%)
Sagittaria trifolia (activity level) (Sagittaria trifolia; Table 8, dose 60 g a.i./ha): 5 (Level 5: growth control rate is above 85%)
Rice (safety level) (Rice; Table 8, dose 60 g a.i./ha): 0 (Level 0: growth control rate is less than 5%)

Cc1nnc(NC(=O)c2ccc(C(F)(F)F)c([S@@+]([O-])CC(C)C)c2F)o1 [1-20 (R-configuration)]
Echinochloa crusgali (activity level) (Echinochloa crusgali; Table 8, dose 60 g a.i./ha): 5 (Level 5: growth control rate is above 85%)
Leptochloa chinensis (activity level) (Leptochloa chinensis; Table 8, dose 60 g a.i./ha): 5 (Level 5: growth control rate is above 85%)
Monochoria vaginalis (activity level) (Monochoria vaginalis; Table 8, dose 60 g a.i./ha): 5 (Level 5: growth control rate is above 85%)
Sagittaria trifolia (activity level) (Sagittaria trifolia; Table 8, dose 60 g a.i./ha): 5 (Level 5: growth control rate is above 85%)
Rice (safety level) (Rice; Table 8, dose 60 g a.i./ha): 0 (Level 0: growth control rate is less than 5%)

Cc1nnc(NC(=O)c2ccc(C(F)(F)F)c([S@@+]([O-])C3COC3)c2F)o1 [1-82 (R-configuration)]
Digitaria sanguinahs (activity level) (Digitaria sanguinalis; Table 3, dose 125 g a.i./ha): 5 (Level 5: growth control rate is above 85%)
Echinochloa crusgali (activity level) (Echinochloa crusgalli; Table 3, dose 125 g a.i./ha): 5 (Level 5: growth control rate is above 85%)
Setaria viridis (activity level) (Setaria viridis; Table 3, dose 125 g a.i./ha): 5 (Level 5: growth control rate is above 85%)
Echinochloa crusgali (activity level) (Echinochloa crusgali; Table 8, dose 60 g a.i./ha): 5 (Level 5: growth control rate is above 85%)
Leptochloa chinensis (activity level) (Leptochloa chinensis; Table 8, dose 60 g a.i./ha): 5 (Level 5: growth control rate is above 85%)
Monochoria vaginalis (activity level) (Monochoria vaginalis; Table 8, dose 60 g a.i./ha): 5 (Level 5: growth control rate is above 85%)
Sagittaria trifolia (activity level) (Sagittaria trifolia; Table 8, dose 60 g a.i./ha): 5 (Level 5: growth control rate is above 85%)
Rice (safety level) (Rice; Table 8, dose 60 g a.i./ha): 0 (Level 0: growth control rate is less than 5%)

Cc1nnc(NC(=O)c2ccc(C(F)(F)F)c([S@@+]([O-])CCCF)c2F)o1 [1-403 (R-configuration)]
Digitaria sanguinahs (activity level) (Digitaria sanguinalis; Table 3, dose 60 g a.i./ha): 5 (Level 5: growth control rate is above 85%)
Echinochloa crusgali (activity level) (Echinochloa crusgalli; Table 3, dose 60 g a.i./ha): 5 (Level 5: growth control rate is above 85%)
Setaria viridis (activity level) (Setaria viridis; Table 3, dose 60 g a.i./ha): 5 (Level 5: growth control rate is above 85%)
Echinochloa crusgali (activity level) (Echinochloa crusgali; Table 8, dose 60 g a.i./ha): 5 (Level 5: growth control rate is above 85%)
Leptochloa chinensis (activity level) (Leptochloa chinensis; Table 8, dose 60 g a.i./ha): 5 (Level 5: growth control rate is above 85%)
Monochoria vaginalis (activity level) (Monochoria vaginalis; Table 8, dose 60 g a.i./ha): 5 (Level 5: growth control rate is above 85%)
Sagittaria trifolia (activity level) (Sagittaria trifolia; Table 8, dose 60 g a.i./ha): 5 (Level 5: growth control rate is above 85%)
Rice (safety level) (Rice; Table 8, dose 60 g a.i./ha): 0 (Level 0: growth control rate is less than 5%)

Cc1nnc(NC(=O)c2ccc(C(F)(F)F)c([S@+]([O-])CCCCl)c2F)o1 [1-414 (R-configuration)]
Digitaria sanguinahs (activity level) (Digitaria sanguinalis; Table 3, dose 500 g a.i./ha): 5 (Level 5: growth control rate is above 85%)
Echinochloa crusgali (activity level) (Echinochloa crusgalli; Table 3, dose 500 g a.i./ha): 5 (Level 5: growth control rate is above 85%)
Setaria viridis (activity level) (Setaria viridis; Table 3, dose 500 g a.i./ha): 5 (Level 5: growth control rate is above 85%)
Echinochloa crusgali (activity level) (Echinochloa crusgali; Table 8, dose 60 g a.i./ha): 5 (Level 5: growth control rate is above 85%)
Leptochloa chinensis (activity level) (Leptochloa chinensis; Table 8, dose 60 g a.i./ha): 5 (Level 5: growth control rate is above 85%)
Monochoria vaginalis (activity level) (Monochoria vaginalis; Table 8, dose 60 g a.i./ha): 5 (Level 5: growth control rate is above 85%)
Sagittaria trifolia (activity level) (Sagittaria trifolia; Table 8, dose 60 g a.i./ha): 5 (Level 5: growth control rate is above 85%)
Rice (safety level) (Rice; Table 8, dose 60 g a.i./ha): 0 (Level 0: growth control rate is less than 5%)

CC[S+]([O-])c1c(C(F)(F)F)ccc(C(=O)Nc2nnc(C)o2)c1F (centres unmarked) [Compound 1-5]
Abutilion theophrasti (activity level) (Abutilon theophrasti; Table 2, dose 60 g a.i./ha): 5 (Level 5: growth control rate is above 85%)
Abutilion theophrasti (activity level) (Abutilon theophrasti; Table 2, dose 125 g a.i./ha): 5 (Level 5: growth control rate is above 85%)
Abutilon theophrasti (activity level) (Abutilon theophrasti; Table 3, dose 60 g a.i./ha): 5 (Level 5: growth control rate is above 85%)
Digitaria sanguinalis (activity level) (Digitaria sanguinalis; Table 2, dose 60 g a.i./ha): 5 (Level 5: growth control rate is above 85%)
Digitaria sanguinalis (activity level) (Digitaria sanguinalis; Table 2, dose 125 g a.i./ha): 5 (Level 5: growth control rate is above 85%)
Digitaria sanguinahs (activity level) (Digitaria sanguinalis; Table 3, dose 60 g a.i./ha): 5 (Level 5: growth control rate is above 85%)
Echinochloa crusgah (activity level) (Echinochloa crusgalli; Table 2, dose 60 g a.i./ha): 5 (Level 5: growth control rate is above 85%)
Echinochloa crusgah (activity level) (Echinochloa crusgalli; Table 2, dose 125 g a.i./ha): 5 (Level 5: growth control rate is above 85%)
Echinochloa crusgali (activity level) (Echinochloa crusgalli; Table 3, dose 60 g a.i./ha): 5 (Level 5: growth control rate is above 85%)
Setaria viridis (activity level) (Setaria viridis; Table 3, dose 60 g a.i./ha): 5 (Level 5: growth control rate is above 85%)
Amaranthus retroflexus (activity level) (Amaranthus retroflexus; Table 2, dose 60 g a.i./ha): 5 (Level 5: growth control rate is above 85%)
Amaranthus retroflexus (activity level) (Amaranthus retroflexus; Table 2, dose 125 g a.i./ha): 5 (Level 5: growth control rate is above 85%)
Stellaria media (activity level) (Stellaria media; Table 2, dose 60 g a.i./ha): 5 (Level 5: growth control rate is above 85%)
Stellaria media (activity level) (Stellaria media; Table 2, dose 125 g a.i./ha): 5 (Level 5: growth control rate is above 85%)
Indica rice (Huanghuazhan) (plant damage level) [1]: 0 (Level 0: growth control rate is less than 5%)
Japonica rice (Huaidao No. 5) (plant damage level) [2]: 0 (Level 0: growth control rate is less than 5%)
Selection index between rice and Echinochloa crusgali [3]: >5
Echinochloa crusgali (activity level) (Echinochloa crusgali; [4]): 5 (Level 5: growth control rate is above 85%)
Monochoria vaginalis (activity level) (Monochoria vaginalis; [4]): 5 (Level 5: growth control rate is above 85%)
Scirpus juncoides (activity level) (Scirpus juncoides): 5 (Level 5: growth control rate is above 85%)
Rice (safety level) (Rice; Table 7, dose 125 g a.i./ha, 21 days after treatment): 0 (Level 0: growth control rate is less than 5%)

COc1cnc(OC)n2nc(NS(=O)(=O)c3c(OCC(F)F)cccc3C(F)(F)F)nc12 [Penoxsulam, reference compound]
Echinochloa crusgali (activity level) (Echinochloa crusgali; Table 8, 30 g a.i./ha): 0 (Level 0: growth control rate is less than 5%)
Leptochloa chinensis (activity level) (Leptochloa chinensis; Table 8, 30 g a.i./ha): 1 (Level 1: growth control rate is greater than or equal to 5% and less than 20%)
Monochoria vaginalis (activity level) (Monochoria vaginalis; Table 8, 30 g a.i./ha): 1 (Level 1: growth control rate is greater than or equal to 5% and less than 20%)
Sagittaria trifolia (activity level) (Sagittaria trifolia; Table 8, 30 g a.i./ha): 0 (Level 0: growth control rate is less than 5%)
pest or weed control at 15 g/ha (weeds; 480 h, (ii) 1 g a.i./mu, stem-leaf treatment, read-out: Control effect of (ii) alone at corresponding dose): 66.4%
pest or weed control at 27 g/ha (weeds; 480 h, (ii) 1.8 g a.i./mu, read-out: Control effect of (ii) alone at corresponding dose): 80.2%
Control effect of (ii) alone at corresponding dose (weeds; (ii) 1 g a.i./mu): 66.4%
